From the NIST ThermoML archive (doi:10.1016/j.fluid.2008.04.016)
“And” between values parts separate entries of the source, which are not always exact repeats. Identical values can stand only once.

Conditions: Liquid

Cc1cc(C(C)(C)C)cc(C(C)(C)C)c1 [3,5-di-tert-butyltoluene]
Transpiration method
Conditions | vapor or sublimation pressure [kPa]
308.25 K | 0.01666
310.65 K | 0.01931
313.35 K | 0.02366
315.45 K | 0.02884
317.95 K | 0.03401
320.45 K | 0.04037
323.05 K | 0.04906
325.55 K | 0.05841
327.95 K | 0.06909
330.55 K | 0.08097
333.05 K | 0.09656
335.55 K | 0.1131
338.15 K | 0.1302
340.65 K | 0.1549
343.05 K | 0.1773
345.55 K | 0.2067
348.1 K | 0.2475
350.45 K | 0.2845
353.05 K | 0.3277
355.65 K | 0.3743
358.15 K | 0.4358

Conditions | vapor or sublimation pressure
379.62 K | 1.318 kPa
379.86 K | 1.338 kPa
380.13 K | 1.358 kPa
393.09 K | 2.478 kPa
393.16 K | 2.483 kPa
393.19 K | 2.483 kPa
393.25 K | 2.488 kPa
402.75 K | 3.746 kPa
402.76 K | 3.746 kPa
402.77 K | 3.746 kPa
410.74 K | 5.173 kPa
410.81 K | 5.179 kPa
410.83 K | 5.184 kPa
410.85 K | 5.189 kPa
428.47 K | 10.05 kPa
428.48 K | 10.05 kPa
439.99 K | 14.94 kPa
440 K | 14.94 kPa
449.13 K | 20.06 kPa and 20.07 kPa
449.14 K | 20.06 kPa
449.15 K | 20.07 kPa
449.2 K | 20.09 kPa
449.21 K | 20.09 kPa
449.22 K | 20.1 kPa
456.12 K | 24.89 kPa
456.13 K | 24.89 kPa
456.14 K | 24.89 kPa
462.5 K | 30.11 kPa
462.52 K | 30.11 kPa
467.98 K | 35.24 kPa
472.54 K | 40.02 kPa
478.05 K | 46.5 kPa
478.06 K | 46.5 kPa
482.73 K | 52.54 kPa and 52.65 kPa and 52.66 kPa
482.76 K | 52.69 kPa
482.77 K | 52.7 kPa
487.56 K | 59.65 kPa
487.57 K | 59.67 kPa
487.58 K | 59.69 kPa
491.67 K | 66.2 kPa and 66.19 kPa
491.68 K | 66.21 kPa
495.5 K | 72.78 kPa
495.53 K | 72.83 kPa
498.98 K | 79.21 kPa
498.99 K | 79.22 kPa
503.36 K | 87.92 kPa and 87.93 kPa
505.71 K | 92.91 kPa
505.72 K | 92.91 kPa
508.06 K | 98.13 kPa
508.07 K | 98.13 kPa
508.08 K | 98.17 kPa
508.09 K | 98.18 kPa
509.38 K | 101.13 kPa and 101.14 kPa and 101.15 kPa
509.93 K | 102.44 kPa
509.94 K | 102.45 kPa
510.55 K | 103.88 kPa
510.56 K | 103.87 kPa and 103.88 kPa

CC(C)(C)c1ccc(C(C)(C)C)cc1 [1,4-bis(1,1-dimethylethyl)benzene]
Transpiration method
Conditions | vapor or sublimation pressure [kPa]
354.15 K | 0.3792
356.45 K | 0.4257
358.95 K | 0.4877
361.75 K | 0.5742
364.25 K | 0.6537
366.45 K | 0.7231
366.55 K | 0.7158
369.15 K | 0.8057
372.05 K | 0.9399
374.15 K | 1.036
376.45 K | 1.171
379.75 K | 1.376
381.75 K | 1.507
383.25 K | 1.647

CC(C)(C)c1cc(C(C)(C)C)cc(C(C)(C)C)c1 [1,3,5-tri-tert-butylbenzene]
Transpiration method
Conditions | vapor or sublimation pressure [kPa]
352.15 K | 0.1311
354.45 K | 0.1544
356.65 K | 0.1766
358.95 K | 0.2039
359.15 K | 0.2029
361.35 K | 0.2292
362.05 K | 0.2407
363.45 K | 0.2577
365.15 K | 0.2888
367.45 K | 0.3257
370.15 K | 0.3801
372.65 K | 0.4354
374.95 K | 0.4944
377.35 K | 0.5671
379.55 K | 0.6317
382.65 K | 0.7387

CC(c1ccccc1)C(C)(C)C (stereo unspecified) [(1,2,2-trimethylpropyl)benzene]
Transpiration method
Conditions | vapor or sublimation pressure [kPa]
296 K | 0.04082
298.5 K | 0.04885
301 K | 0.05923
303.5 K | 0.07018
305.9 K | 0.08326
308.4 K | 0.09874
310.9 K | 0.1175
313.4 K | 0.1378
315.9 K | 0.1579
318.3 K | 0.185
320.8 K | 0.2193
323.3 K | 0.2551
325.8 K | 0.292
